The subject of data set [1] is Toxoplasma gondii grown in human fibroblasts. Nature of the data set: Incorporation of radiolabeled uracil (parasite survival). It counts as cell-based. Conditions: Toxoplasma gondii, Fibroblast, [5,6-3H]uracil incorporation, read-out: percent survival of Toxoplasma gondii grown in human fibroblasts. Here is the method: Incorporation of Radiolabeled Uracil. […] Uptake and incorporation of radiolabeled uracil into nucleic acids of T. gondii were carried out, at least in triplicates, in tissue culture, using monolayers of human foreskin fibroblasts infected with T. gondii. The fibroblasts were cultured in no more than 30 passages in Dulbecco's modified Eagle medium, containing 100 units/mL penicillin G and 100 μg/mL streptomycin sulfate, and 10% FBS, pH 7.2. Briefly, confluent cells (4-5 day incubation) were cultured for 24 hours in the 24-well flat bottom microtiterplates (~5×10^5 /1 mL/well) and incubated at 37° C. in 5% CO2, 95% air to allow the cells to attach. The medium was then removed and the cells were infected with isolated T. gondii in medium with 3% FBS (1 parasite/cell). After 1 hour incubation, the cultures were washed with media with 10% FBS to remove extracellular parasites. FBS was maintained at a final concentration of 10%. […] After an additional 18 hours incubation, the medium was replaced with 1 mL drug free media containing […] (2 μCi/mL) and incubated for another 6 hours, after which the media was removed. The fibroblasts were released from the wells by trypsinization with the addition of 200 μL trypsin/EDTA (2.5×) to each well. After 10 minutes incubation, 1 mL of ice cold 10% trichloroacetic acid (TCA) was added to each well. The plates were then placed on a shaker to insure the detachment of the cells. The suspended contents of each well were filtered through GF/A 2.4 cm glass microfiber filters (Whatman, Hillsboro, Oreg.), which were prewashed each with 1 mL double distilled H2 O and dried. After filtration, the filters were washed with 10 mL methanol, left to dry, and then placed in scintillation vials containing 5 mL of Econo-Safe scintillation fluor (Research Products International Corp., Mount Prospect, Ill.), and radioactivity was counted using an LS5801 Beckman scintillation counter.

Data set [2] in a line: Toxicity of compounds, MTT assay. It counts as cell-based, human. Conditions: human, foreskin fibroblasts, MTT, 48 hours, read-out: percent survival of uninfected human fibroblasts. Here is the method:
(§1) Toxicity of compounds. Toxicity of the different doses of the various analogues were performed at least in triplicates, using a modification of the Microculture Tetrazolium (MTT) assay and uninfected monolayers of human foreskin fibroblasts. Briefly, confluent cells were incubated for at least 24 hours in the 96-well flat bottom microtiterplates (~10^5 /200 μL/well) and incubated at 37° C. in 5% CO2, 95% air to allow the cells to attach. The medium was then replaced with 200 μL of fresh medium. […] The cultures were then incubated for 48 hours, after which 50 μL of sterile MTT solution (2 mg/1 mL PBS) was added to each well. MTT solution was sterilized by filtration through 0.22 μm filters (Costar, Cambridge, Mass.). After 4 hours incubation, the medium was removed and 100 μL of dimethylsulfoxide (DMSO) was added to each well and the plates were shaken gently for 2-3 minutes to dissolve the formed formazan crystals. The absorbance was measured at 540 nm, using a computerized microtiterplate reader (Themomax, Molecular Division)
In general terms: Tetrazolium dyes change colour on reduction, which living cells bring about.

Data set [3] concerns uninfected human foreskin fibroblasts. Nature of the data set: Toxicity of compounds, MTT assay. It counts as cell-based. Conditions: therapeutic doses (5-50 μM tested). On the procedure: as §1

Consider `O=C(Nc1ncnc2c1ncn2[C@@H]1O[C@H](CO)[C@@H](O)[C@H]1O)c1ccccc1` [Compound 44, N^6 -Benzoyladenosine], for which, in data set [1], the activity at 5 µM amounted to 96.4%, the activity at 10 µM turned out to be 94.6%, the activity at 25 µM worked out at 112% and the activity at 50 µM amounted to 100%. In addition, in data set [2], the viability at 48 h, 5 µM is 94.4%; the viability at 48 h, 10 µM came out at 94.1%; the viability at 48 h, 25 µM worked out at 97.6%; the viability at 48 h, 50 µM is 99.3%.

As to `OC[C@H]1O[C@@H](n2cnc3c(NCc4ccccc4)ncnc32)[C@H](O)[C@@H]1O` [Compound 45, N^6 -Benzyladenosine], in data set [1], the activity at 5 µM is 62.8%, the activity at 10 µM came out at 41.8%, the activity at 25 µM is 52.9% and the activity at 50 µM came to 26.3%. For the same molecule, in data set [2], the viability at 48 h, 5 µM is 46.3%; the viability at 48 h, 10 µM stood at 21.8%; the viability at 48 h, 25 µM is 36.5%; the viability at 48 h, 50 µM worked out at 31%. Also, the “Toxicity to host cells (human fibroblasts), in words” value in data set [3] was “toxic to host cells at therapeutic doses”.

For `Nc1ccc(CNc2ncnc3c2ncn3[C@@H]2O[C@H](CO)[C@@H](O)[C@H]2O)cc1` [Compound 46, N^6 -(p-Aminobenzyl)adenosine], in data set [1], the activity at 5 µM turned out to be 100%, the activity at 10 µM worked out at 95.6%, the activity at 25 µM stood at 108% and the activity at 50 µM was found to be 120%. Moreover, in data set [2], the viability at 48 h, 5 µM came out at 93.3%; the viability at 48 h, 10 µM stood at 91.9%; the viability at 48 h, 25 µM was 101%; the viability at 48 h, 50 µM is 101%.

As for `COc1ccc(C(=O)Nc2ncnc3c2ncn3[C@@H]2O[C@H](CO)[C@@H](O)[C@H]2O)cc1` [Compound 47, N^6 -(p-Methoxybenzolyl)adenosine (N^6 -anisoyladenosine)], in data set [1], the activity at 5 µM was determined as 94.2%, the activity at 10 µM is 93.1%, the activity at 25 µM stood at 104% and the activity at 50 µM was found to be 125%. In addition, in data set [2], the viability at 48 h, 5 µM is 92.9%; the viability at 48 h, 10 µM worked out at 92.6%; the viability at 48 h, 25 µM stood at 99.2%; the viability at 48 h, 50 µM turned out to be 97.4%.

As to `CCc1nc(N)nc(N)c1-c1ccc(Cl)cc1` [Pyrimethamine, reference compound], in data set [1], the activity at 5 µM was 25.9%, the activity at 10 µM was 12.9%, the activity at 25 µM stood at 10.2% and the activity at 50 µM stood at 13.8%. Also, in data set [2], the viability at 48 h, 5 µM turned out to be 104%; the viability at 48 h, 10 µM amounted to 98.8%; the viability at 48 h, 25 µM came out at 108%; the viability at 48 h, 50 µM was determined as 118%.

Turning to `Nc1ccc(S(=O)(=O)Nc2ncccn2)cc1` [Sulfadiazine, reference compound], in data set [1], the activity at 5 µM was found to be 74.6%, the activity at 10 µM is 64.8%, the activity at 25 µM turned out to be 66.3% and the activity at 50 µM was found to be 66.3%. Also, in data set [2], the viability at 48 h, 5 µM was 98.2%; the viability at 48 h, 10 µM was 99.7%; the viability at 48 h, 25 µM turned out to be 99.8%; the viability at 48 h, 50 µM is 102%.

For the origin of these results see US5773424A, “Treatment of toxoplasmosis” (priority 1994, dated 1998).
